Patent US20210145775A1, “Treatment of intestinal barrier dysfunction and associated diseases” (CymaBay Therapeutics, Inc., priority 2019, published 2021)

Tests used:
[1] = test system: Subjects with diagnosed irritable bowel syndrome (IBS); experiment: Clinical (oral) treatment of irritable bowel syndrome; type: in vivo, human
Method: The subjects keep a health diary in which their symptoms of irritable bowel syndrome are recorded.

PPARα = target: T1, PPARα (Homo sapiens, UniProt Q07869); conditions: cited from earlier work
T1 sequence (Q07869 1-468): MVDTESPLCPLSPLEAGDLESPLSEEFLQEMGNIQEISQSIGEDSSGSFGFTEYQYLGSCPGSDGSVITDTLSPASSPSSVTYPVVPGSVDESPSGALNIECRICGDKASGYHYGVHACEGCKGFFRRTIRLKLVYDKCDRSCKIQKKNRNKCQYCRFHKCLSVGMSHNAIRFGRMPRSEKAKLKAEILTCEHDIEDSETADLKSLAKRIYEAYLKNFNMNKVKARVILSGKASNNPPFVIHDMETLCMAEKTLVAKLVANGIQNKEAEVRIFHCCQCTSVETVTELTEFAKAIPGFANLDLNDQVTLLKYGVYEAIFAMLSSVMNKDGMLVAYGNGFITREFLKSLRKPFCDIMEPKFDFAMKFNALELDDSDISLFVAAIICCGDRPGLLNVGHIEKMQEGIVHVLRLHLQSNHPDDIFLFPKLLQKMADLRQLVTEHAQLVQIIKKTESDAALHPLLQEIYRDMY

[2] = test system: atherogenic diet-fed obese diabetic (Alms1 mutant (foz/foz)) mice; conditions: cited from earlier work
[3] = test system: wild-type female C57BL/6 mice; experiment: Preclinical Lieber-DeCarli ethanol diet mouse model (alcoholic liver disease / intestinal barrier function); type: in vivo
From the text: Age-matched wild-type female C57BL/6 mice (Charles River, Wilmington, Mass.), 8-9 weeks old at the initiation of the study, were used.
The Lieber-DeCarli ethanol diet was originally developed by Charles Lieber and Leonore DeCarli in 1963. This diet allows for the prolonged exposure of ethanol in a rodent model and allows for modification to calories provided by ethanol. […] The caloric intake from ethanol was 0% on day 1, 10% on days 2 and 3, 20% on days 4 and 5, 30% from day 6 until the end of 6 weeks, and 36% for the last 2 weeks, for a total in-life time of eight weeks. The ethanol-fed mice also received one bolus dose of 33% v/v ethanol at 5 g/Kg on the last in-life day. The control diet contained an isocaloric substitution of isomaltose for the ethanol. […] In the prevention portions of the study, including with the control diet, seladelpar was added throughout the entire study period; in the intervention portion of the study, seladelpar was added only for the fifth through eighth weeks. Fresh feces were collected at 7.5 weeks. All mice were sacrificed after eight weeks; the ethanol-fed mice eight hours after the ethanol bolus. At sacrifice, body and liver weight were recorded; and blood/plasma, liver, gallbladder, small and large intestine (wall and contents) and cecum were harvested. Analyses included plasma ALT—to measure […]; hepatic TGs; plasma lipopolysaccharides (LPS)—to measure the extent of bacterial leakage from the intestine into the blood; fecal albumin (FA)—to measure the extent of albumin leakage from the blood into the intestine (feces); and total bile acids, measured by liquid chromatography-mass spectrometry (LC-MS) generally according to the method described in Hartmann et al., “Modulation of the Intestinal Bile Acid/Farnesoid X Receptor/Fibroblast Growth Factor 15 Axis Improves Alcoholic Liver Disease in Mice”, Hepatology, 67(6), 2150-2166 (2018).
The study results are given in the table below: standard errors of the means are in parentheses, n denotes the number of mice measured, and ANOVA denotes the significance value of an ANOVA analysis between groups 3, 4, and 5:
Formalin-fixed liver sections were stained for histological examination with hematoxylin and eosin (H+E).

[4] = test system: male RAG2−/− mice on C57BL/6 background; experiment: Preclinical adoptive T-cell transfer colitis; type: in vivo; conditions: 10 mg/Kg/day in drinking water, day 14 to day 42
From the text: The cell donor animals are male C57BL/6 mice and the recipient animals are male RAG2^−/− mice on C57BL/6 background, aged 6-8 weeks at the start of the study. Recipient animals (20 +12 per test compound) are assigned: 5 to form a control group receiving no cell transfer or treatment, and the remainder to receive cell transfer. At day 0, the donor animals are sacrificed and spleens excised, dissociated to a single cell suspension, and the red blood cells lysed. The cell suspension is enriched for CD4+ T cells using a Miltenyi CD4+ T cell isolation kit, then further enriched for naïve CD4+ T cells using a Miltenyi naïve CD4+ T cell isolation kit. […] The animals are weighed daily and assessed visually for presence and severity of diarrhea and bloody stools, with video endoscopy on days 14, 28, and 42 to assess the severity of the colitis and score stool consistency. All animals are sacrificed at day 42 following endoscopy and samples collected: blood is collected and processed for plasma, the colon is excised, measured, rinsed, weighed, and trimmed to the most distal 5 cm, of this distal and proximal 2 cm portions are placed in formalin for histological evaluation, while the central 1 cm is snap-frozen in liquid nitrogen, and stored for analysis; and the liver is excised, weighed, snap-frozen in liquid nitrogen, and stored for analysis.

[5] = alcohol diet, groups 4 and 5 vs untreated group 3, ANOVA

SMILES: CCO[C@H](COc1ccc(C(F)(F)F)cc1)CSc1ccc(OCC(=O)O)c(C)c1 [seladelpar]
- IBS symptoms recorded in health diary ([1]; 2, 5, 10, 20, 50 or 100 mg/day oral for 12 weeks): general improvement in their IBS symptoms
- improvement of disease (management of IBS, gastrointestinal symptoms) ([1]; 2-100 mg/day oral for 12 weeks): dose-related improvement in their disease
- specificity for PPARδ compared with PPARα (PPARα): > 600 fold
- NASH pathology (hepatic steatosis, inflammation, fibrosis) [2]: improves NASH pathology
- liver histology (H+E) ([3]; alcohol diet, prevention and intervention, comparing group 3 with groups 4 and 5): significant reduction of steatosis and restoration of a more normal architecture
- serum ALT, change versus untreated ([3]; alcohol diet, groups 4 and 5 (prevention and intervention) vs untreated group 3, ANOVA): significant reductions (improvements)
- fecal albumin, change versus untreated [3, 5]: significant reduction (improvement)
- hepatic TGs, change versus untreated [3, 5]: significant reductions (improvements)
- serum LPS, change versus untreated [3, 5]: significant reductions (improvements)
- total bile acids, change versus untreated [3, 5]: significant reductions (improvements)
- effect on ALT, hepatic TGs, plasma LPS, FA and total bile acids (any of the above parameters) ([3]; control diet groups, seladelpar prevention (group 2 vs group 1)): did not significantly affect
- liver histology (H+E) ([3]; control diet, comparing groups 1 and 2): no significant change
- colitis (body weight, endoscopic and histologic examination) [4]: ameliorates the colitis
